Results published in ChEMBL document CHEMBL1201862, “PubChem BioAssay data set” (2004).
Calls of active or inactive are those of the source.

Columns and labels:
Format in all cases: functional
[1] = target: Serine/threonine-protein kinase Nek2 (Homo sapiens, UniProt P51955)
[2] = target: Dual specificity tyrosine-phosphorylation-regulated kinase 1A (Homo sapiens, UniProt Q13627);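 note: measured against DYRK1A as one member of a broad kinome profiling panel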
[3] = target: Dual specificity tyrosine-phosphorylation-regulated kinase 1B (Homo sapiens, UniProt Q9Y463); assay: Navigating the Kinome. Panel member name: DYRK1B
[4] = target: Dual specificity protein kinase CLK4 (Homo sapiens, UniProt Q9HAZ1)
[5] = target: T1, Serine/threonine-protein kinase Chk1 (Homo sapiens, UniProt O14757);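 note: measured as one member of a kinome-wide kinase profiling panel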
T1 sequence (O14757 whole entry): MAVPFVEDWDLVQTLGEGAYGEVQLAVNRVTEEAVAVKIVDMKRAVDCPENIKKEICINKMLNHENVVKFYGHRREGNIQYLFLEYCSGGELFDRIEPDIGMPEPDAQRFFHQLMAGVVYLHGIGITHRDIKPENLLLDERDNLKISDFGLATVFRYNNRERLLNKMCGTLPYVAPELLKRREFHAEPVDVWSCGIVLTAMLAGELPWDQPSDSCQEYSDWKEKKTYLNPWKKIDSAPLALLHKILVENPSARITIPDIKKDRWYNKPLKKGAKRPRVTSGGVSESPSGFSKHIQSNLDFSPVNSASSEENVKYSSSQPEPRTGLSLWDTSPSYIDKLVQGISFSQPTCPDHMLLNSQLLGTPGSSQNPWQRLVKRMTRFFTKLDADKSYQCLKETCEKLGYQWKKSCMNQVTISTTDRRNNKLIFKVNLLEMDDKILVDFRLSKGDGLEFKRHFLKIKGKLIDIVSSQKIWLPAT

[6] = target: Platelet-derived growth factor receptor alpha (Homo sapiens, UniProt P16234); assay: Navigating the Kinome. Panel member name: PDGFRA
[7] = target: Leucine-rich repeat serine/threonine-protein kinase 2 (Homo sapiens, UniProt Q5S007);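 note: value from a broad kinome-wide panel profiling study in which LRRK2 was one of the kinases tested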
[8] = target: Cyclin-dependent kinase 5 (Homo sapiens, UniProt Q00535);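 note: CDK5 measured as one member of a kinase profiling panel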
Cyclin-dependent kinase 5, sequence (Q00535 whole entry): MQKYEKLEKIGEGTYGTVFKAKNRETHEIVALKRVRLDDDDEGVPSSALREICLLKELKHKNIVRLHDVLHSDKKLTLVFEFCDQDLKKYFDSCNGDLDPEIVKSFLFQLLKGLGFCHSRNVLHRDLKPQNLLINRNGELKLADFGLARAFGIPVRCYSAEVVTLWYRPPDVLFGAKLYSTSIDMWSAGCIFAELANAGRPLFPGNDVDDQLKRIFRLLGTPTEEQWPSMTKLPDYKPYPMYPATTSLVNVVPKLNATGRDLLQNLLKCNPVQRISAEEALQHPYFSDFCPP

Dual specificity protein kinase CLK4, sequence (Q9HAZ1 whole entry): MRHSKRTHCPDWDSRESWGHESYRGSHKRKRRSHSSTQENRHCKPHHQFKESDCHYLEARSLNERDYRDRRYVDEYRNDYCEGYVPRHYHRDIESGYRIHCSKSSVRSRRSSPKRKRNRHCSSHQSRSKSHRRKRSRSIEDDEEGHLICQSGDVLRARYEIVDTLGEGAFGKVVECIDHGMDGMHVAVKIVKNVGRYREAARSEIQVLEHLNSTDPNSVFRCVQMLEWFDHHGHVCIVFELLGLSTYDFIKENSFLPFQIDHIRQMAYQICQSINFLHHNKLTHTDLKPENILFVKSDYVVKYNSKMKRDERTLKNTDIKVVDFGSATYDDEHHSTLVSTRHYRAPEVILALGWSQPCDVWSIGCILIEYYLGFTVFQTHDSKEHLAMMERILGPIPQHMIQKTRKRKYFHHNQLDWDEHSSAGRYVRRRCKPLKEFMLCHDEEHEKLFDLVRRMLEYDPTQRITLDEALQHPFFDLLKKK
Dual specificity tyrosine-phosphorylation-regulated kinase 1B, sequence (Q9Y463 whole entry): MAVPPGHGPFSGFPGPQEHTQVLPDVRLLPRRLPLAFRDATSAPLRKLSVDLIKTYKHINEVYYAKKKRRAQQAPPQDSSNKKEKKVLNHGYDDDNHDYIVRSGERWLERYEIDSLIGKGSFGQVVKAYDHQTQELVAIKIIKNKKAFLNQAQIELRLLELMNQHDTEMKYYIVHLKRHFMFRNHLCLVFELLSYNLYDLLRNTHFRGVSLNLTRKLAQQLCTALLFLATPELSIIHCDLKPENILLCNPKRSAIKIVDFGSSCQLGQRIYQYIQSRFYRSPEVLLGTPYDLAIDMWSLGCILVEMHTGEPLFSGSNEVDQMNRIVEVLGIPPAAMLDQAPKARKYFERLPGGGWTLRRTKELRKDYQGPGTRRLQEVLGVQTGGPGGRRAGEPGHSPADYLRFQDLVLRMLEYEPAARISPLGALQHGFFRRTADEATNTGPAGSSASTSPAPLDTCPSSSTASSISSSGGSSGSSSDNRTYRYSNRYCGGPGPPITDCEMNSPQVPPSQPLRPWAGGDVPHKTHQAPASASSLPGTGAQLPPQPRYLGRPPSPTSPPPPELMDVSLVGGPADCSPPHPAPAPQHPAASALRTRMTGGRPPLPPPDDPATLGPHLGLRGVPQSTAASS
Leucine-rich repeat serine/threonine-protein kinase 2, sequence (Q5S007 whole entry): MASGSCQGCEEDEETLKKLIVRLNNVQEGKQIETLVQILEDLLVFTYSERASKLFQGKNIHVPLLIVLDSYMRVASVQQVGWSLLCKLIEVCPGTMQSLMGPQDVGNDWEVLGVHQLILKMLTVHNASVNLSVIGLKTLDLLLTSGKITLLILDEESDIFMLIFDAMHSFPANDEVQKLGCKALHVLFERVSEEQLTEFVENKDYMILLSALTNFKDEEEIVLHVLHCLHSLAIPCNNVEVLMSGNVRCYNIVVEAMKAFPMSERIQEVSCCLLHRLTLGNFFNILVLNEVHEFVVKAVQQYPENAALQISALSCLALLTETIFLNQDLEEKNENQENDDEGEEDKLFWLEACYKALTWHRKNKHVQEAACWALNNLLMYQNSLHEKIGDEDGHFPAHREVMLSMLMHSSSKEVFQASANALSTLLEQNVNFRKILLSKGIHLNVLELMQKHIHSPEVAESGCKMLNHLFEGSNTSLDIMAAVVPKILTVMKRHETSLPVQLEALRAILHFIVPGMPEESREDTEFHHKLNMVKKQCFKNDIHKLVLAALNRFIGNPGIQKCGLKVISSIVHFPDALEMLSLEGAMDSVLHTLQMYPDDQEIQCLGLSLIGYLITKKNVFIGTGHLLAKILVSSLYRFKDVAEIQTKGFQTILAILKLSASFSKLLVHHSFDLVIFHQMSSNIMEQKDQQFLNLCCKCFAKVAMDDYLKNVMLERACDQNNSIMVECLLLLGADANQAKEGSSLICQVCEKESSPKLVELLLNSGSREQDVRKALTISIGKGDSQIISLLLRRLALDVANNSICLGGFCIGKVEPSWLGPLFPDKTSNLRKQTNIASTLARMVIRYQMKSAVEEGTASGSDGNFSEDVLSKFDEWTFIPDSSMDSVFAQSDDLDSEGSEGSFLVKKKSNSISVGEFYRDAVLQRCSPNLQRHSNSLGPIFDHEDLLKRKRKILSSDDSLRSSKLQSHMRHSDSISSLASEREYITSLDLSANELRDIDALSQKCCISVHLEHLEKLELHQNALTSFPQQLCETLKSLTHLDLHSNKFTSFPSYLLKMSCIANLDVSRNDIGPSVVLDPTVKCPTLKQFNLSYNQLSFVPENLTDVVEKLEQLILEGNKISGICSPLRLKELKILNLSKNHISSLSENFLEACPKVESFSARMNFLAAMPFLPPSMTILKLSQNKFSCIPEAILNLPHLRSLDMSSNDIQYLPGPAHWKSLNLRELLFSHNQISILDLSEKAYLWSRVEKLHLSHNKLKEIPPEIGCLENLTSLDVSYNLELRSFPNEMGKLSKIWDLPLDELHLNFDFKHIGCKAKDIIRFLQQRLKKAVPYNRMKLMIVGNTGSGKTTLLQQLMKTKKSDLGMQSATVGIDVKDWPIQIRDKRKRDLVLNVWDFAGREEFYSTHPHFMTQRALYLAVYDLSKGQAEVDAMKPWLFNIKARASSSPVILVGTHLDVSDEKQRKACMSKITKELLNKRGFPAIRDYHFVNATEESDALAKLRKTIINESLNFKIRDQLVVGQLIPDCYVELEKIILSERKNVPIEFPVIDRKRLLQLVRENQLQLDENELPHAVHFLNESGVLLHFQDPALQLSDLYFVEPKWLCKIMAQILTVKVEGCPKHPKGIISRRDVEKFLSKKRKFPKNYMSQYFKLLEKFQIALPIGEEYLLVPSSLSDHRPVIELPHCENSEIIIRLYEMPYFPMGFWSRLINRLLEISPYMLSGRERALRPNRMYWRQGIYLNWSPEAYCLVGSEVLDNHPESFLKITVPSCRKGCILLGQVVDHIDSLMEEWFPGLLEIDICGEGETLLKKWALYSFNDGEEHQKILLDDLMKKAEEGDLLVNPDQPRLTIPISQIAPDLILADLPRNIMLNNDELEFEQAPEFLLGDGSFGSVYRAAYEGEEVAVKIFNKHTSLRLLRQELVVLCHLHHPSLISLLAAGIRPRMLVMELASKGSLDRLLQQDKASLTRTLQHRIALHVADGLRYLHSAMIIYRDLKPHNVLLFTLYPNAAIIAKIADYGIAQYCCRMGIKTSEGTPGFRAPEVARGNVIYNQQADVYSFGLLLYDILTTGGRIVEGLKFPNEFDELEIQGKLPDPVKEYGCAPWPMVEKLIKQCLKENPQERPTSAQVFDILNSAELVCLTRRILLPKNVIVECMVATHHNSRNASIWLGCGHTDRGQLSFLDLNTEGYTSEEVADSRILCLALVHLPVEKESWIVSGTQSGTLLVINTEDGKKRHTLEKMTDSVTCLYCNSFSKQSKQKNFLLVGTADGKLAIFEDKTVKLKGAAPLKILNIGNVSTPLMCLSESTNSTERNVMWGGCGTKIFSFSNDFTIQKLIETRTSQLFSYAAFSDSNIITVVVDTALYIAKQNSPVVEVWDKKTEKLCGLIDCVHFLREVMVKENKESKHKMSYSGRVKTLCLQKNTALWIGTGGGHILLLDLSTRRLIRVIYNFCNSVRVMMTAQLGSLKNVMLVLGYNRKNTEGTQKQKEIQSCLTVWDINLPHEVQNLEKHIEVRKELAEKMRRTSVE
Serine/threonine-protein kinase Nek2, sequence (P51955 whole entry): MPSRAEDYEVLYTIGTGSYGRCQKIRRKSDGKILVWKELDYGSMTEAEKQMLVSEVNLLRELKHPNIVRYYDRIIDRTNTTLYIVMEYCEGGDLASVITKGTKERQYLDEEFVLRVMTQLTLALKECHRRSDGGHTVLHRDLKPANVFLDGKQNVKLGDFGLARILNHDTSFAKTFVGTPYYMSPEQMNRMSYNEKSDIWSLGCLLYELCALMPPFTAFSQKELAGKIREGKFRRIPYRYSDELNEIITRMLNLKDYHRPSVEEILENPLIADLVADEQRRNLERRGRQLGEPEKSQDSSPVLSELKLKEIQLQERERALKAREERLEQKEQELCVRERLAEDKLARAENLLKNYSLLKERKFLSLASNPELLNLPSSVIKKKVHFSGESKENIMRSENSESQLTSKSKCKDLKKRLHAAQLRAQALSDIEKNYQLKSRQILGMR

Row | Ki [1] | Structure (SMILES) | Ki [2] | Ki [3] | Ki [4] | Ki [5] | Ki [6] | Ki [7] | Ki [8]
1 | 5.01 µM (active) | Cc1cc2c(c(C#N)c1C)OC1(CCCCC1)C(N)C2=O (centres undefined) | 1.58 µM (active) | – | – | – | – | – | –
2 | – | Nc1nnc2sc3ccccc3n12 | 39.8 µM (active) | 63.1 µM (active) | 31.6 µM (active) | 39.8 µM (active) | 63.1 µM (active) | 79.4 µM (active) | 39.8 µM (active)
